From patent publication US5593835A, “Methods and kits for RNA binding compounds” (President and Fellows of Harvard College, priority 1995, dated 1997)

What was measured:
[1] = biological target: X1s1 RNA (SEQ ID NO: 3), synthetically derived from the predicted structures; test: Fluorescence binding measurements, X1s1 RNA; settings: K1 - high affinity; footnote b: ligand is 6'N4-pyreneacetyl tobramycin; read-out: Dissociation Constants K1(PYT)
Description: (§1) The binding of tobramycin to two cloned RNAs X1 (SEQ ID NO:2) and J6 (SEQ ID NO:5), representative of both classes of consensus sequences, was measured using the fluorescence techniques described in the exemplification.
(§2) *synthetically derived from the predicted structures
(§3) Steady state fluorescence measurements were performed on a double beam fluorescence spectrometer (Perkin-Elmer Model 512, Norwalk, Conn.). The excitation wavelength was 341 nm. All measurements were done at 20° C. in 140 mM NaCl, 5 mM KCl, 1 mM CaCl2, 1 mM MgCl2, and 20 mM HEPES, pH 7.4. The KD of the PYT and the RNA aptamer was calculated by the curve fitting of the fluorescence intensity as a function of RNA concentration, using the following equation
(§4) Competition binding measurements of antibiotics with RNA and PYT were performed at constant concentrations of PYT and RNA by monitoring fluorescence intensity changes as a function of changing concentrations of the antibiotics (a standard fluorescence curve). The KD s for the antibiotics were calculated by the curve fitting of the fluorescence intensity of PYT as a function of antibiotic concentration, using the following equation: […]

[2] = system: W13 RNA having SEQ ID NO:1; test: Fluorescence (PYT quenching) titration and competition binding to W13 RNA; settings: for competition with PYT binding (in words): fluorescence competition assay
Description: To study the binding behavior of clone W13, a fluorescently labelled pyrene-conjugated tobramycin derivative "PYT" was prepared.
For competitive binding studies, different concentrations of antibiotic (glucosamine (0-10 mM), erythromycin (0-6 mM), gentamicin C (0-700 μM), or neomycin B (0-650 μM)), were mixed with constant concentrations of RNA (300 nM W13) and PYT (150 nM), in Binding buffer (140 mM NaCl, 5 mM KCl, 1 mM MgCl2, 1 mM CaCl2, 20 mM HEPES, pH 7.4), 750 μl total volume, for 1-5 min. at 20° C. in a semimicro-cell cuvette. The fluorescence was measured on a Perkin-Elmer Model 512 double beam fluorescence spectrophotometer. The excitation wavelength used was 341 nm. The intensities of fluorescence emission at 380 nm were used to calculate dissociation constants. Generally 8 to 10 points were used for calculation.
as §3
(assuming a 1:1 complex): I=Io +0.5Δε ([PYT]o
-(([PYT]o +[RNA]o KI)^2 -4[PYT]o [RNA]o)^0.5)
Competition binding measurements of antibiotics with RNA and PYT were performed at constant concentrations of PYT and RNA by monitoring fluorescence intensity changes as a function of changing concentrations of the antibiotics (a standard fluorescence curve). The KD s for the antibiotics were calculated by the curve fitting of the fluorescence intensity of PYT as a function of antibiotic concentration, using the following equation:
I=Io +Δε[PYT.circle-solid.RNA]
[PYT.circle-solid.RNA]=0.5(([PYT]o +[RNA]o)([RNA]o
+KD)+KI ([T]o +[RNA]o +KD)-((([PYT]o
+[RNA]o)([RNA]o +KD)+KI ([T]o +[RNA]o
+KD))^2 -4([RNA]o +KD) [PYT]o [RNA]o
([RNA]o +KD))^0.5)([RNA]o +KD) (equation 2)
KD and KI are the dissociation constants for the antibiotic and PYT respectively.
[T]o is the total concentration of antibiotic added. Measurements were taken at least twice for each measured KD.

[3] = system: RNA pool transcribed from DNA after the sixth selection, bound to tobramycin affinity column; test: Elution of bound RNA from tobramycin affinity column; assay type: binding; settings: 10 column volumes of selection buffer containing 50 mM D-glucosamine
From the text: Elution patterns of the RNA from the columns are shown in FIG. 4 for the second and sixth selections. Over 6 cycles of selection, the percentages of RNA specifically eluted with tobramycin were <0.1%, 3.0%, 2.9%, 26%, 55%, and 82%. […] The RNA pool transcribed from DNA after the sixth selection could not be eluted from the affinity column, even after 100 column volumes of selection buffer.
An N-hydroxysuccinimide Affi-Gel affinity column (Bio-Rad, Hercules, Calif.) was derivatized with either 20 μmoles or 0.075 μmoles tobramycin per ml of gel to generate the affinity columns. Excess N-hydroxysuccinimide linkages were blocked by adding 1M ethanolamine. The resulting column served as the support for the RNA selections. The tobramycin concentration on column was estimated as about 15 mM. Selections were performed in 1 ml column volumes in a buffer (selection buffer) containing 140 mM NaCl, 5 mM KCl, 1 mM CaCl2, 1 mM MgCl2, and 20 mM Tris acetate, pH 7.4 (Bock et al. (1992) Nature 355: 564-566). A 1 ml Affi-Gel 10 pre-column treated with ethanolamine was used in all selections.
The original double stranded DNA pool was constructed by large scale PCR amplification of the synthesized 109mer random DNA pool (Oligos, Etc., Inc., Wilsonville, Oreg.) containing 60 random nucleotides. […]

[4] = biological target: J6 RNA (SEQ ID NO:5); test: Fluorescence binding measurements, J6 RNA; settings: K1 - high affinity; fluorescent ligand per footnote a/b; read-out: Dissociation Constants K1(PYT)
Description: as §1, §3, §4

[5] = biological target: J6a1 RNA (SEQ ID NO: 5), synthetically derived from the predicted structures; test: Fluorescence binding measurements, J6a1 RNA; settings: K1 - high affinity; fluorescent ligand per footnote a/b; read-out: Dissociation Constants K1(PYT)
Description: as §1, §2, §3, §4

[6] = biological target: random selected RNA pool (low stringency tobramycin column); test: Fluorescence assay, average binding of the random selected RNA pool; settings: overall selected pool mixture
Description: To determine whether the W13 RNA clone is representative of the average binding capacity of the random selected RNA pool, the average KD values for the random selected pool were measured. […] Therefore, the W13 RNA is representative of the average binding capacity of the random selected pool.
as §3, §4

[7] = biological target: clone W13 RNA (SEQ ID NO:1), tobramycin-selected RNA aptamer; test: Equilibrium dialysis binding to clone W13 RNA; settings: equilibrium dialysis, direct; read-out: KD
Description: One of these RNAs, clone W13 (SEQ ID NO:1) was chosen for quantitative studies to determine the specificity of its binding to RNA. […] The dissociation constant for tobramycin was determined to be 3 μM by competition studies with ^3 H-acetyl tobramycin. These values are close to those measured for tobramycin and ^3 H-acetyl tobramycin binding to ribosomal targets (LeGoffic et al. (1979) Eur. J. Biochem. 102: 73-81).
Equilibrium dialysis measurements were performed according to the procedure of Lorsch et al. (Biochem. (1994) 33: 973-982).

[8] = biological target: RRE region of HIV RNA; test: Fluorescence binding and competitive binding to RRE RNA; settings: competition, 100 nM RNA, 15 nM fluorescent tobramycin, 20° C., pH 7.4; read-out: Dissociation Constant (KD) RRE RNA
Description: In order to quantitatively determine whether fluorescently labelled tobramycin and other antibiotics bind directly to the RRE region and/or to other regions of the HIV RNA, and with what affinity, the RRE and TAR regions of HIV RNA were prepared and used in the method of the invention as target RNAs.
For binding studies, different concentrations of RRE RNA (from 0 to 300 nm) were mixed with a constant concentration (15 nM) PYT in Binding buffer (140 mM NaCl, 1 mM MgCl2, 20 mM HEPES, pH 7.4), 2 ml total volume, for 1-5 min. at 20° C. in a semimicro-cell cuvette. The fluorescence was measured on a Perkin-Elmer Model 512 double beam fluorescence spectrophotometer. The excitation wavelength used was 330 nm. The intensities of fluorescence emission at 390 nm were used to calculate dissociation constants. Generally 8 to 12 points were used for calculation.
In other competitive binding studies, TAR or RRE RNA was added at a constant concentration of 100 nM±5% and PYT at 15 nM. Different concentrations of competitive antibiotic (tobramycin (o-60 μM), gentamicin C (0-100 μM), neomycin B (0-4 μM), or lividomycin A (0-100 μM) or Rev protein (0-6 μM) were mixed with constant concentrations of RNA (100 nM TAR or RRE) and C1PYT (15 nM), in Binding buffer (140 mM NaCl, 5 mM KCl, 1 mM MgCl2, 20 mM HEPES, pH 7.4), 2 ml total volume, for 1-5 min. at 20° C. in a semimicrocell cuvette. The fluorescence was measured on a Perkin-Elmer Model 512 double beam fluorescence spectrophotometer. The excitation wavelength used was 330 nm. The intensities of fluorescence emission at 390 nm were used to calculate dissociation constants. Generally 8 to 12 points were used for calculation.
Wild type and mutant RRE RNAs were transcribed in vitro by T7 RNA polymerase using synthetic oligonucleotide templates, as described by Milligan et al. (Meth. Enzymol. (1989) 180: 51-62).
as §4

[9] = fluorescence, competition with PYT (150 nM PYT, 300 nM W13), 20° C., pH 7.4, N.B. = no measurable binding

Compound | competition with PYT binding (in words) [2] | Kd [2, 9] | Kd [8] | other results
N[C@@H]1[C@@H](O)[C@@H](O[C@@H]2[C@@H](O)[C@H](O[C@H]3O[C@H](CNC(=O)Cc4ccc5ccc6cccc7ccc4c5c67)[C@@H](O)C[C@H]3N)[C@@H](N)C[C@H]2N)O[C@H](CO)[C@H]1O [6'N4-pyreneacetyl tobramycin, 6'-N-4-pyreneacetyl tobramycin] |  |  |  | Kd [1]: 0.0651 ± 0.0074 µM
N[C@H]1C(O)O[C@H](CO)[C@@H](O)[C@@H]1O (stereo partly drawn) [D-glucosamine] | did not measurably compete with PYT binding |  |  | KD (μM) [2, 9]: N.B.; elution of bound RNA from tobramycin affinity column (in words) [3]: did not cause any bound RNA to be eluted
N[C@@H]1[C@@H](O)[C@@H](O[C@@H]2[C@@H](O)[C@H](O[C@H]3O[C@H](CNC(=O)CCCc4ccc5ccc6cccc7ccc4c5c67)[C@@H](O)C[C@H]3N)[C@@H](N)C[C@H]2N)O[C@H](CO)[C@H]1O [PYT, 6'-N-4-pyrenebutyryl tobramycin] |  | 0.02 ± 0.007 µM |  | Kd ([2]; fluorescence intensity of PYT as function of RNA concentration, 1:1 complex, 20° C., pH 7.4): 0.02 ± 0.004 µM; times more tightly bound than tobramycin ([2]; ratio of KD values, PYT vs tobramycin): more than 200 times; Kd [4]: 0.00538 ± 0.00046 µM; Kd [5]: 0.286 ± 0.01 µM; Kd [6]: 0.052 ± 0.008 µM
CC(=O)NCC1OC(OC2C(N)CC(N)C(OC3OC(CO)C(O)C(N)C3O)C2O)C(N)CC1O (stereo not shown) [^3 H-acetyl tobramycin, 6-N-^3 H-Acetyl Tobramycin] |  |  |  | Kd [7]: 1.3 µM
CC[C@H]1OC(=O)[C@H](C)[C@@H](O[C@H]2C[C@@](C)(OC)[C@@H](O)[C@H](C)O2)[C@H](C)[C@@H](O[C@@H]2O[C@H](C)C[C@H](N(C)C)[C@H]2O)[C@](C)(O)C[C@@H](C)C(=O)[C@H](C)[C@@H](O)[C@]1(C)O [erythromycin] | only weakly inhibited PYT binding | 505 ± 25 µM |  | 
NC[C@@H]1O[C@H](O[C@H]2[C@@H](O)[C@H](O[C@@H]3[C@@H](O)[C@H](N)C[C@H](N)[C@H]3O[C@H]3O[C@H](CO)[C@@H](O)C[C@H]3N)O[C@@H]2CO)[C@H](N)[C@@H](O)[C@@H]1O[C@H]1O[C@H](CO)[C@@H](O)[C@H](O)[C@@H]1O [lividomycin-A, lividomycin A] |  |  | 11.9 ± 0.33 µM | 
NC[C@@H]1O[C@H](O[C@H]2[C@@H](O)[C@H](O[C@@H]3[C@@H](O)[C@H](N)C[C@H](N)[C@H]3O[C@H]3O[C@H](CN)[C@@H](O)[C@H](O)[C@H]3N)O[C@@H]2CO)[C@H](N)[C@@H](O)[C@@H]1O [neomycin B] | potent inhibitors of binding |  | 0.419 ± 0.0038 µM | 
gentamicin | potent inhibitors of binding | 4.7 ± 4 µM | 10.8 ± 0.68 µM | 
